This note sets out measurements from US10632165B2, “Beneficial effect of Bidens pilosa on fat decrease and muscle increase” (Academia Sinica, priority 2016, dated 2020).

One data set has as its system PPARγ. The data set is described as follows: PPARγ expression in 3T3-L1 cells (Western blot). In kind it is cell-based, mouse. As to conditions: inducer plus test substance.
Another data set deals with aP2. The data set is described as follows: aP2 expression in 3T3-L1 cells (real-time PCR). It counts as cell-based, mouse. On the procedure: (§1) The MTT assay of 3T3-L1 adipocytes grown in the medium containing vehicle or cytopiloyne at the indicated concentration for 24 hr is shown (A). 3T3-L1 pre-adipocytes were initiated for differentiation with DMSO (vehicle) and a mixture of Dex, IBMX and insulin for 2 days (B). The differentiating cells were then incubated with vehicle (inducer), rosiglitazone (RSG) or different doses of cytopiloyne until complete differentiation occurred. Lipid droplets from all the cells were visualized by Oil-Red-O staining and examined by light microscopy (left panel). Scale bars=10 μm. Oil Red O inside the cells was extracted and quantified at 520 nm (right panel). Expression of PPAR-γ and C/EBPα in 3T3-L1 cells treated with inducer in the presence of rosiglitazone (RSG) or cytopiloyne was analyzed by Western blot (C). The relative expression level (REL) of aP2 and adiponectin in 3T3-L1 cells was measured using real-time PCR (D). Effect of cytopiloyne on differentiation of human SGBS cells. The cells were incubated with DMEM/F12 medium (vehicle) or differentiation medium for 3 days (E). The cells were then incubated with vehicle (inducer) and cytopiloyne (25 μM) until a complete differentiation. The cells were stained with Oil Red O and photographed. Scale bar=20 μm. […]

The next data set deals with 3T3-L1 adipocytes. As to the kind of experiment: MTT assay of cell viability of adipocytes. As to conditions: 24 hr. In kind it is cell-based, mouse. On the procedure:
as §1, with “differentiation.” for “differentiation. The cells were stained with Oil Red O and photographed. Scale bar=20 μm.”
MTT assay was used to determine cell viability of adipocytes. […] The plate was measured at 570 nm (signal) and 650 nm (reference) using a microplate reader (UVM340, Biochrom, UK).
For orientation: Tetrazolium dyes change colour on reduction, which living cells bring about.

The subject of another data set is 3T3-L1 pre-adipocytes. As to the kind of experiment: Differentiation of 3T3-L1 pre-adipocytes, Oil Red O staining and lipid quantification. It counts as cell-based, mouse. The note with it: 3T3-L1, inducer (Dex, IBMX and insulin) plus test substance. On the procedure:
as §1, with “(E).” for “(E). The cells were then incubated with vehicle (inducer) and cytopiloyne (25 μM) until a complete differentiation. The cells were stained with Oil Red O and photographed. Scale bar=20 μm.”
(§2) The differentiated adipocytes were washed with phosphate-buffered saline (PBS) and fixed with 4% formaldehyde for 15 min. […] For lipid quantification, isopropanol was used to extract the intracellular oil red O, followed by measurement at 520 nm using a microplate reader.

The next data set deals with human SGBS cells. The data set is described as follows: Differentiation of human SGBS cells, Oil Red O staining. It counts as cell-based. The note with it: 25 μM. As for the experimental part:
as §1, with “(E).” for “(E). The cells were then incubated with vehicle (inducer) and cytopiloyne (25 μM) until a complete differentiation. The cells were stained with Oil Red O and photographed. Scale bar=20 μm.”
as §2

A further data set has as its system adiponectin. The data set is described as follows: Adiponectin expression in 3T3-L1 cells (real-time PCR). It counts as cell-based, mouse. On the procedure: as §1
For orientation: Quantitative PCR measures a nucleic acid by following its amplification.

For a further data set, the system named is C/EBPα. The data set is described as follows: C/EBPα expression in 3T3-L1 cells (Western blot). It counts as cell-based, mouse. The note with it: inducer plus test substance. As for the experimental part: as §1, with “differentiation.” for “differentiation. The cells were stained with Oil Red O and photographed. Scale bar=20 μm.”
Western Blot. […] After developing with ECL substrate (GE Healthcare, UK), the membranes were detected using FLUORCHEM™ HD2 system (Bio-Techne, Minneapolis, Minn., USA).
For orientation: In western blotting, separated proteins are transferred to a membrane and probed.

Procedure for PPARγ: 3T3-L1 pre-adipocytes were initiated for differentiation with DMSO (vehicle) and a mixture of Dex, IBMX and insulin for 2 days (B). The differentiating cells were then incubated with vehicle (inducer), rosiglitazone (RSG) or different doses of cytopiloyne until complete differentiation occurred. […] Expression of PPAR-γ and C/EBPα in 3T3-L1 cells treated with inducer in the presence of rosiglitazone (RSG) or cytopiloyne was analyzed by Western blot (C).
3T3-L1 cells were maintained in DMEM medium containing 10% FBS, 4 mM glutamine, 4.5 g/L glucose, 1 mM sodium pyruvate, and 1.5 g/L sodium bicarbonate. The differentiation of 3T3-L1 cells into adipocytes was initiated by the addition of 10 μM Dex, 0.5 mM IBMX and 10 μg/mL insulin to the confluent cells for 2 days. The cells were then differentiated in medium containing 10 μg/mL insulin together with DMSO, rosiglitazone and cytopiloyne for an additional 8 to 10 days. The medium was changed every 2 days until the differentiation was complete.

`CC#CC#CC#CC#CCCC(CO)O[C@@H]1O[C@H](CO)[C@@H](O)[C@H](O)[C@H]1O` (stereo partly drawn) [cytopiloyne, 2-β-D-glucopyranosyloxy-1-hydroxytrideca-5,7,9,11-tetrayne]: the “PPARγ expression up-regulated by the inducer” value in the data set on PPARγ is reported as “abolished the up-regulation”. Besides, in the data set on aP2, the “expression level of aP2 up-regulated by the inducer” value is recorded as “abolished this up-regulation”. In addition, the “cytotoxicity (MTT)” value with 3T3-L1 adipocytes (3T3-L1, 25 μM or less) is listed as “did not show cytotoxicity”; in the data set with 3T3-L1 adipocytes (3T3-L1, 50 μM) it was “slight cytotoxicity”. Further, the “production of lipid droplets in adipocytes” value in the data set on 3T3-L1 pre-adipocytes was “dose-dependently inhibited this production”. In the data set with human SGBS cells, the “production of lipid droplets” value was “inhibitory effect of cytopiloyne on the production of lipid droplets was confirmed”. Moreover, the “expression level of adiponectin up-regulated by the inducer” value with adiponectin is on record as “abolished this up-regulation”. The “C/EBPα expression up-regulated by the inducer” value in the data set with C/EBPα was “abolished the up-regulation”.
